Some test systems named below: SK-MEL-28; KM12; SK-MEL-2; A549; RXF 393; HOP-92; ACHN; UO-31; BT-549; SF-295; HL-60; SR; MDA-MB-435; OVCAR-4; U-251; K562; SW-620; A498; HOP-62.
Assay in all cases: NCI-60 cell line screen, 48 h

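Results reflect a 48-hour exposure of cells in 96-well plates to compound at five concentrations. Abbreviation: GI50, concentration required for 50% inhibition of growth.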 The source made the active and inactive calls. No stated cut-off is given here; in the data, active = GI50 up to about 1.1 µM and inactive = higher.

As to `CCC1C(c2cc(OC)c(OC)c(OC)c2)c2cc3c(cc2OC1N1CCCC1)OCO3` (configuration not stated), the GI50 with SK-MEL-28 is 8.87 µM (inactive); in the test on KM12, 0.743 µM (active); with SK-MEL-2 it was 1.98 µM (inactive); with A549, 2.76 µM (inactive); in the test with RXF 393 it was 1.45 µM (inactive); in the test with HOP-92, 4.18 µM (inactive). In addition, the GI50 in the test on ACHN was 4.03 µM (inactive); in the test on UO-31, 4.1 µM (inactive); in the test with BT-549, 4.06 µM (inactive); in the test with SF-295, 1.07 µM (active); with HL-60 it was 1.57 µM (inactive); in the test on SR it was 1.17 µM (inactive). The GI50 was 0.277 µM (active) in the test on MDA-MB-435; 12.7 µM (inactive) with OVCAR-4; 2.56 µM (inactive) in the test with U-251; 0.752 µM (active) in the test on K562; 1.21 µM (inactive) in the test on SW-620; 3.15 µM (inactive) in the test on A498. In the test with HOP-62, the GI50 was 2.82 µM (inactive).
For the compound `CCOC(=O)C1=C(C)NC(=O)NC1c1coc2cc(C)cc(C)c2c1=O` (configuration not stated), the GI50 is > 100 µM (inactive) with SK-MEL-28; 30 µM (inactive) in the test on KM12; > 43.8 µM (inactive) in the test on SK-MEL-2; 46.9 µM (inactive) with A549; 25.4 µM (inactive) with RXF 393; > 74.3 µM (inactive) with HOP-92. Besides, the GI50 in the test on ACHN was > 81.3 µM (inactive); in the test with UO-31, 44 µM (inactive); in the test with BT-549, 99.3 µM (inactive); in the test on SF-295, 47.6 µM (inactive); in the test on HL-60, > 54.5 µM (inactive); in the test on SR, 10.2 µM (inactive). Besides, the GI50 in the test with MDA-MB-435 was 4.5 µM (inactive); in the test with OVCAR-4, 55.3 µM (inactive); in the test with U-251, 32.1 µM (inactive); with K562 it was 30.7 µM (inactive); in the test on SW-620, 32.1 µM (inactive); in the test with A498, > 100 µM (inactive). Further, the GI50 in the test with HOP-62 was 36.8 µM (inactive).
As for `O=c1[nH]nc(-c2cccc(Br)c2)[nH]1`, the GI50 in the test with SK-MEL-28, with KM12, with SK-MEL-2, with A549, with RXF 393 and in the test on HOP-92 was > 100 µM (inactive) throughout. Moreover, the GI50 in the test with ACHN is > 100 µM (inactive); in the test with UO-31, 94.2 µM (inactive); in the test with BT-549, 4.74 µM (inactive); in the test on SF-295 it was > 100 µM (inactive); in the test on HL-60, > 100 µM (inactive); in the test on SR it was > 100 µM (inactive). For the same compound, the GI50 in the test with MDA-MB-435, in the test on OVCAR-4, in the test with U-251, in the test with K562, with SW-620 and in the test on A498 was > 100 µM (inactive) throughout. Moreover, the GI50 with HOP-62 was > 100 µM (inactive).
Take `Cc1cc2nc(O)c(C(C)C(=O)c3ccc(Cl)cc3)nc2cc1C` (configuration not stated): the GI50 in the test with SK-MEL-28 is 50.8 µM (inactive); in the test with KM12 it was 29.8 µM (inactive); with SK-MEL-2, > 100 µM (inactive); in the test on A549, 39.8 µM (inactive); in the test with RXF 393, 41.3 µM (inactive); in the test on HOP-92 it was 59.3 µM (inactive). In addition, the GI50 in the test with ACHN is 54.1 µM (inactive); in the test on UO-31, 46.9 µM (inactive); in the test with BT-549 it was 54.5 µM (inactive); with SF-295 it was 31.7 µM (inactive); in the test with HL-60, 21.2 µM (inactive); with SR, 22.2 µM (inactive). For the same compound, the GI50 with MDA-MB-435 was 20.1 µM (inactive); with OVCAR-4, 31.6 µM (inactive); in the test with U-251, 36.2 µM (inactive); in the test with K562, 40.6 µM (inactive); with SW-620, 28.8 µM (inactive); in the test with A498 it was 23.1 µM (inactive). Moreover, the GI50 in the test on HOP-62 is 49.8 µM (inactive).
Take `Cc1ccc(S(=O)(=O)N/N=C/C(Br)=C(/Br)C(=O)O)cc1`: the GI50 is 2.94 µM (inactive) in the test with SK-MEL-28; 10.6 µM (inactive) in the test on KM12; 14.6 µM (inactive) in the test with SK-MEL-2; 19.5 µM (inactive) in the test with A549; 2.21 µM (inactive) with RXF 393; 11.3 µM (inactive) in the test with HOP-92. Also, the GI50 in the test with ACHN is 2.71 µM (inactive); with UO-31, 4.66 µM (inactive); in the test with BT-549, 6.55 µM (inactive); in the test with SF-295, 14.1 µM (inactive); in the test on HL-60, 1.93 µM (inactive); with SR, 0.321 µM (active). Further, the GI50 in the test on MDA-MB-435 was 4.43 µM (inactive); in the test with OVCAR-4, 6.22 µM (inactive); with U-251 it was 4.22 µM (inactive); in the test with SW-620 it was 2.2 µM (inactive); in the test with A498, 16.4 µM (inactive); in the test with HOP-62, 16.2 µM (inactive).
Take `COc1ccc(C2NC(=O)Nc3c2c(=O)oc2c3ccc3ccccc32)cc1` (configuration not stated): the GI50 in the test on SK-MEL-28 is 55.5 µM (inactive); in the test on KM12, 57 µM (inactive); with SK-MEL-2 it was 26.4 µM (inactive); with A549 it was 48.4 µM (inactive); in the test with RXF 393 it was 42 µM (inactive); in the test with HOP-92, 35.2 µM (inactive). For the same compound, the GI50 was 51.6 µM (inactive) in the test on ACHN; 52.7 µM (inactive) in the test with UO-31; 41.6 µM (inactive) in the test on BT-549; 51.4 µM (inactive) in the test on SF-295; 70.8 µM (inactive) with HL-60; 50 µM (inactive) in the test with SR. In addition, the GI50 is 56.5 µM (inactive) with MDA-MB-435; 48 µM (inactive) with OVCAR-4; 36.7 µM (inactive) in the test with U-251; 48.1 µM (inactive) in the test on K562; > 100 µM (inactive) in the test on SW-620; 31.4 µM (inactive) in the test on A498. Besides, the GI50 with HOP-62 is 61.4 µM (inactive).
Take `COc1ccc(-c2cc(-c3ccc(Nc4ccnc5cc(Cl)ccc45)cc3)[nH]c(=O)c2C#N)c2ccccc12`: the GI50 is 3.34 µM (inactive) in the test with SK-MEL-28; 3.47 µM (inactive) with KM12; 14.1 µM (inactive) in the test on SK-MEL-2; 18.1 µM (inactive) with A549; 5.05 µM (inactive) with RXF 393; 3.84 µM (inactive) in the test with HOP-92. In addition, the GI50 in the test on ACHN was 27.5 µM (inactive); with UO-31 it was 5.32 µM (inactive); with BT-549, 16.4 µM (inactive); with SF-295, 17.7 µM (inactive); in the test with HL-60, 3.03 µM (inactive); in the test with SR, 0.413 µM (active). Moreover, the GI50 in the test on MDA-MB-435 is 1.87 µM (inactive); with OVCAR-4, 1.79 µM (inactive); in the test on U-251 it was 1.87 µM (inactive); in the test with K562 it was 2.37 µM (inactive); with SW-620 it was 3.51 µM (inactive); in the test with A498 it was 23.3 µM (inactive). The GI50 in the test with HOP-62 is 14.5 µM (inactive).
For `O=C1/C(=C(/Br)I)c2ccccc2-c2ccccc21`, the GI50 in the test with SK-MEL-28 was 21.5 µM (inactive); in the test on KM12, 14.2 µM (inactive); in the test on SK-MEL-2, 8.73 µM (inactive); with A549, 15.9 µM (inactive); in the test with RXF 393, 3.21 µM (inactive); with HOP-92 it was 2.79 µM (inactive). Also, the GI50 in the test with ACHN was 7.26 µM (inactive); in the test with UO-31 it was 2.4 µM (inactive); in the test on BT-549, 7.03 µM (inactive); in the test on SF-295, 17 µM (inactive); with HL-60 it was 0.248 µM (active); in the test on SR, 2.92 µM (inactive). Besides, the GI50 in the test with MDA-MB-435 is 8.51 µM (inactive); in the test with OVCAR-4, 14.7 µM (inactive); in the test with U-251, 12.6 µM (inactive); with K562, 2.36 µM (inactive); in the test on SW-620 it was 2.52 µM (inactive); with A498, 16.4 µM (inactive). Also, the GI50 in the test with HOP-62 is 17.1 µM (inactive).
As for `C#CCN1CCN(C(=S)N/N=C(\C)c2ccccn2)CC1`, the GI50 in the test with SK-MEL-28 was 1.36 µM (inactive); in the test with KM12 it was 0.161 µM (active); in the test on SK-MEL-2, 0.262 µM (active); in the test on A549 it was 3.12 µM (inactive); in the test on RXF 393, 0.465 µM (active); in the test on HOP-92 it was 0.166 µM (active). The GI50 was 0.044 µM (active) in the test with ACHN; 0.634 µM (active) in the test with UO-31; 1.49 µM (inactive) in the test on BT-549; 0.632 µM (active) with SF-295; 0.01 µM (active) with HL-60; 0.011 µM (active) with SR. The GI50 with MDA-MB-435 is 1.49 µM (inactive); in the test on OVCAR-4, 0.35 µM (active); with U-251 it was 0.0189 µM (active); in the test with K562, 0.01 µM (active); in the test with SW-620, 0.0262 µM (active); in the test with A498, 2.15 µM (inactive). The GI50 in the test with HOP-62 is 0.363 µM (active).
For `Nc1ncnc2c1ncn2C1OC(CO)C(O)C1NS(=O)(=O)c1ccccc1` (configuration not stated), the GI50 in the test with SK-MEL-28, in the test with KM12, in the test with SK-MEL-2, in the test on A549, in the test with RXF 393 and in the test on HOP-92 was > 100 µM (inactive) throughout. For the same compound, the GI50 in the test with ACHN, in the test on UO-31, in the test on BT-549, in the test on SF-295, with HL-60 and in the test on SR was > 100 µM (inactive) throughout. Moreover, the GI50 with MDA-MB-435, in the test on OVCAR-4, in the test with U-251, in the test with K562, in the test on SW-620 and in the test with A498 was > 100 µM (inactive) in each case. For the same compound, the GI50 with HOP-62 was > 100 µM (inactive).
On to `N#Cc1ccc(C2ON=C(c3ccccc3)N2C23CC4CC(CC(C4)C2)C3)cc1` (configuration not stated), for which the GI50 in the test on SK-MEL-28, in the test on KM12, with SK-MEL-2, in the test on A549, in the test on RXF 393 and in the test on HOP-92 was > 10 µM (inactive) each time. In addition, the GI50 with ACHN is > 10 µM (inactive); with BT-549 it was 5.66 µM (inactive); in the test with SF-295 it was > 10 µM (inactive); with HL-60, 4.05 µM (inactive); with SR, 3.85 µM (inactive); with MDA-MB-435, > 10 µM (inactive). In addition, the GI50 in the test on OVCAR-4, with U-251, with K562, in the test with SW-620, in the test with A498 and in the test on HOP-62 was > 10 µM (inactive) in each case.

The values are drawn from ChEMBL document CHEMBL1201862, “PubChem BioAssay data set” (2004).
